In patent publication US9090600B2, “Fungicidal 4-substituted-3-{phenyl[(heterocyclylmethoxy)imino]methyl}-1,2,4-oxadizol-5(4H)-one derivatives” (BAYER INTELLECTUAL PROPERTY GMBH, priority 2011, dated 2015):
Marks after values point to notes of the source that are not given here.

Settings: pH 2.7
In the case of CCCCC(C)(C)OC(=O)Nc1cccc(CO/N=C(/c2ccccc2)c2noc(=O)n2C)n1 [Example 353], the LogP is reported as 5.1 [a]. For Cn1c(/C(=N\OCc2cccc(NC(=O)SC(C)(C)C)n2)c2ccccc2)noc1=O [Example 162], the LogP was 4.39 [a]. With Cn1c(/C(=N\OCc2cccc(NC(=O)OCCCC3CC3)n2)c2ccccc2)noc1=O [compound 549] the LogP was 4.37 [a]. In the case of Cc1ccc(OC(=O)Nc2cccc(CO/N=C(/c3ccccc3)c3noc(=O)n3C)n2)cc1 [compound 425], the LogP is reported as 4.03 [a]. With Cn1c(C(=NOCc2cccc(N)n2)c2ccccc2F)noc1=O [Example 510] the LogP was 1.23 [a]. With Cn1c(C(=NOCc2cccc(NC(=O)OC(C)(C)C)n2)c2cccc(F)c2F)noc1=O [Example 254] the LogP was 4.01 [a]. With Cc1ccc(/C(=N/OCc2csc(NC(=O)C(C)Oc3ccccc3)n2)c2noc(=O)n2C)cc1 (centres unmarked) [Example 319] the LogP was 3.99 [a]. For CC(COC(=O)Nc1cccc(CO/N=C(/c2ccccc2)c2noc(=O)n2C)n1)CC(C)(C)C (centres unmarked) [compound 451], the LogP was 5.39 [a]. In the case of Cn1c(C(=NOCc2cccc(NC(=O)OCc3cccc(F)c3)n2)c2ccccc2)noc1=O [compound 501], the LogP is reported as 4.01 [a]. In the case of CC(=O)CCCOC(=O)Nc1cccc(CO/N=C(/c2ccccc2)c2noc(=O)n2C)n1 [compound 446], the LogP is reported as 2.96 [a]. With Cc1ccccc1OCC(=O)Nc1nc(CO/N=C(/c2ccccc2)c2noc(=O)n2C)cs1 [Example 213] the LogP was 3.85 [a]. In the case of Cn1c(/C(=N\OCc2cccc(NC(=O)C3(c4ccc(Cl)cc4Cl)CC3)n2)c2ccccc2)noc1=O [Example 222], the LogP is reported as 4.96 [a]. For CCCCC(CC)COC(=O)Nc1cccc(CO/N=C(/c2ccccc2)c2noc(=O)n2C)n1 (racemic) [compound 463], the LogP was 5.54 [a]. In the case of CC(C)(C)OC(=O)Nc1cccc(CON=C(C(N)=NO)c2ccc(F)cc2)n1 (mixture of isomers) [Example V-8], the LogP is reported as 2.68 [a]. In the case of Cn1c(/C(=N\OCc2cccc(NC(=O)c3ccccc3Oc3ccccc3)n2)c2ccccc2)noc1=O [Example 294], the LogP is reported as 4.76 [a]. With CCCCC(=O)Nc1nc(CO/N=C(/c2ccc(C)cc2)c2noc(=O)n2C)cs1 [Example 169] the LogP was 3.7 [a]. With CCOC(=O)Nc1cccc(CO/N=C(/c2ccccc2)c2noc(=O)n2C)n1 [compound 421] the LogP was 3.21 [a]. With CCCCOC(=O)Nc1cccc(CO/N=C(/c2ccccc2F)c2noc(=O)n2C)n1 [Example 552] the LogP was 3.92 [a]. With Cc1ccccc1COC(=O)Nc1cccc(CON=C(c2ccccc2)c2noc(=O)n2C)n1 [compound 487] the LogP was 4.29 [a]. With CCCc1cccc(OC(=O)Nc2cccc(CO/N=C(/c3ccccc3)c3noc(=O)n3C)n2)c1 [compound 469] the LogP was 4.72 [a]. In the case of Cn1c(/C(=N\OCc2csc(NC(=O)C3COc4ccccc4O3)n2)c2cccc(F)c2)noc1=O (centres unmarked) [Example 234], the LogP is reported as 3.7 [a]. With COc1ccc(C(=O)Nc2cccc(CO/N=C(/c3ccccc3)c3noc(=O)n3C)n2)cc1 [Example 217] the LogP was 3.53 [a]. In the case of CCCCSC(=S)Nc1cccc(CO/N=C(/c2ccccc2)c2noc(=O)n2C)n1 [Example 385], the LogP is reported as 4.8 [a]. With Cn1c(/C(=N\OCc2cccc(NC(=O)OCCC3CCCC3)n2)c2ccccc2)noc1=O [compound 533] the LogP was 4.9 [a]. With Cn1c(/C(=N\OCc2csc(NC(=O)COc3ccc(Cl)cc3)n2)c2ccccc2)noc1=O [Example 164] the LogP was 3.85 [a]. For Cn1c(/C(=N\OCc2cccc(NC(=O)OC(C)(C)C(Cl)(Cl)Cl)n2)c2ccccc2)noc1=O [compound 445], the LogP was 4.91 [a]. With Cn1c(/C(=N\OCc2cccc(NC(=O)OCc3cccnc3)n2)c2ccccc2)noc1=O [compound 434] the LogP was 2.17 [a]. For CC(Oc1ccccc1Cl)C(=O)Nc1cccc(CO/N=C(/c2ccccc2)c2noc(=O)n2C)n1 (centres unmarked) [Example 231], the LogP was 4.41 [a]. In the case of Cn1c(/C(=N\OCc2cccc(NC(=O)OCc3cccs3)n2)c2ccccc2)noc1=O [compound 527], the LogP is reported as 3.83 [a].
